Experimental data published in PMC4707675 (ACS infectious diseases, 2015).
Read-outs that look alike come from different tables or passages of the source.

What was measured:
[1] = test system: DHFR-overexpressing strain of Mtb (DHFR-oe); type: cell-based, Mycobacterium tuberculosis
[2] = test system: DHFR-overexpressing strain of Mtb (DHFR-oe); settings: ref Nixon et al.[15]; cited from earlier work

Row | Structure (SMILES) | MIC90 DHFR-oe [1] [µM] | MIC90 DHFR-oe [2] [µM]
1 | CC1(C)N=C(N)N=C(N)N1OCCCOc1cc(Cl)c(Cl)cc1Cl [WR99210] | 15 to 30 | –
2 | COc1cc(NCc2ccc3nc(N)nc(N)c3c2C)cc(OC)c1OC [Trimetrexate] | – | >100
3 | N#Cc1ccc(Cn2ccc3c4c(N)nc(N)nc4ccc32)cc1 [PQD-1] | >2 | –
